# Data as given in PubChem BioAssay (NCI).
#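 Grown in 96-well plates, cells were treated for 48 hours with each compound at five concentrations. Insufficient inhibition: endpoint recorded as highest concentration tested. At the GI50, growth is halved. At the TGI there is no net growth.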
# What was measured:
# Experiment in all cases: NCI-60 cell line screen, 48 h
# [1] = test system: 786-0 renal
# [2] = test system: A498 renal
# [3] = test system: A549 NSCLC
# [4] = test system: ACHN renal
# [5] = test system: BT-549 breast
# [6] = test system: CAKI-1 renal
# [7] = test system: CCRF-CEM leukemia
# [8] = test system: COLO 205 colon
# [9] = test system: DU-145 prostate
# [10] = test system: EKVX NSCLC
# [11] = test system: HCC-2998 colon
# [12] = test system: HCT-116 colon
# [13] = test system: HCT-15 colon
# [14] = test system: HOP-62 NSCLC
# [15] = test system: HOP-92 NSCLC
# [16] = test system: HS 578T breast
# [17] = test system: HT29 colon
# [18] = test system: IGROV1 ovarian
# [19] = test system: K-562 leukemia
# [20] = test system: KM12 colon
# [21] = test system: LOX IMVI melanoma
# [22] = test system: M14 melanoma
# [23] = test system: MALME-3M melanoma
# [24] = test system: MCF7 breast
# [25] = test system: MDA-MB-231 breast
# [26] = test system: MDA-MB-435
# [27] = test system: MOLT-4 leukemia
# [28] = test system: NCI-H226 lung
structure (smiles),measurement,setting,value
COC(=O)c1ccc(C2SCC(=O)N2NC(=O)C(O)c2ccccc2)cc1 (stereo not given),GI50,[1],> 100 µM
same,TGI,[1],> 100 µM
same,GI50,[2],> 100 µM
same,TGI,[2],> 100 µM
same,GI50,[3],> 100 µM
same,TGI,[3],> 100 µM
same,GI50,[4],> 100 µM
same,TGI,[4],> 100 µM
same,GI50,[5],> 100 µM
same,TGI,[5],> 100 µM
same,GI50,[6],> 100 µM
same,TGI,[6],> 100 µM
same,GI50,[7],> 100 µM
same,TGI,[7],> 100 µM
same,GI50,[8],> 100 µM
same,TGI,[8],> 100 µM
same,GI50,[9],> 100 µM
same,TGI,[9],> 100 µM
same,GI50,[10],> 100 µM
same,TGI,[10],> 100 µM
same,GI50,[11],> 100 µM
same,TGI,[11],> 100 µM
same,GI50,[12],> 100 µM
same,TGI,[12],> 100 µM
same,GI50,[13],> 100 µM
same,TGI,[13],> 100 µM
same,GI50,[14],> 100 µM
same,TGI,[14],> 100 µM
same,GI50,[15],> 100 µM
same,TGI,[15],> 100 µM
same,GI50,[16],> 100 µM
same,TGI,[16],> 100 µM
same,GI50,[17],> 100 µM
same,TGI,[17],> 100 µM
same,GI50,[18],> 100 µM
same,TGI,[18],> 100 µM
same,GI50,[19],> 100 µM
same,TGI,[19],> 100 µM
same,GI50,[20],> 100 µM
same,TGI,[20],> 100 µM
same,GI50,[21],> 100 µM
same,TGI,[21],> 100 µM
same,GI50,[22],> 100 µM
same,TGI,[22],> 100 µM
same,GI50,[23],> 100 µM
same,TGI,[23],> 100 µM
same,GI50,[24],> 100 µM
same,TGI,[24],> 100 µM
same,GI50,[25],> 100 µM
same,TGI,[25],> 100 µM
same,GI50,[26],> 100 µM
same,TGI,[26],> 100 µM
same,GI50,[27],> 100 µM
same,TGI,[27],> 100 µM
same,GI50,[28],> 100 µM
